Values of other authors in patent US4746505A, “Technetium radiodiagnostic fatty acids derived from bisamide bisthiol ligands” (President and Fellows of Harvard College, priority 1985, dated 1988).

How the values were obtained:
[1] = at carrier-added (CA) and no-carrier-added (NCA) concentrations
[2] = mice

Substance | stability in vivo (at carrier-added (CA) and no-carrier-added (NCA) concentrations) | renal excretion (in vivo) | stability in vitro [1] | kidney activity ([2]; at 5 min post-injection) | blood levels ([2]; over the first 30 min)
oxo[N,N'-ethylenebis(2-mercapto-acetamido)]technetate (+5) [[TcO(ema)]^-] | stable | rapid renal excretion | stable | – | –
^99m Tc-oxo[N,N'-ethylene-bis(2-mercapto)-[2'-(11-carboxyundecyl)]thio-acetamido]-technetate (+5) [^99m TcO(Undec)ema] | – | – | – | relatively high kidney activity | 6-8 %/g
